From patent publication US20140294729A1, “METHODS FOR IDENTIFICATION AND USE OF AGENTS TARGETING CANCER STEM CELLS” (Whitehead Institute for Biomedical Research, priority 2008, published 2014) come the findings set out here.

Entries after “also recorded” stand apart in the source; their conditions may differ. *1 amine or outer side, *2 acyl side, *3 side chain or, on linkers, in order; H or OH if unused. Where a SMILES comes first, the peptide text is derived from it. Bridges are numbered along the chain shown (N, C = ends). Roman numbers before positions name the chains, in order. [ ]: non-standard residue; d: D form. Actinocin(9to1) = Cc1c2oc3c(C)ccc(C(=O)[*:1])c3nc-2c(C(=O)[*:2])c(N)c1=O; NMeV = CN[C@H](C(=O)O)C(C)C; Sar = CNCC(=O)O

In test [1] the test system is HMLEshEcad cells. As to the kind of experiment: Resistance to cytotoxic agents, immortalized HMLEshCntrl vs HMLEshEcad (MTS viability). To be noted: three concentrations, FIG. 2B. The format is cell-based, human. As for the experimental part:
(§1) FIGS. 2A-2D depict that passage through the EMT leads to resistance to conventional chemotherapy drugs. FIG. 2A depicts dose response curves of transformed HMLERshCntrl (light gray line) and HMLERshEcad (dark gray line) cells treated with Paclitaxel and Doxorubicin. Dotted line denotes the 50% fraction surviving. […] FIG. 2B depicts the response of immortalized cells to chemotherapy drugs. HMLEshCntrl and HMLEshEcad cells were treated with the indicated drugs at three concentrations for 3 days and assayed for viability using the MTS assay. While Doxorubucin, Actinomycin D, Paclitaxel and Campthotecin are chemotherapeutic drugs, Staurosporine is a general kinase inhibitor that potently induce apoptosis. FIGS. 2C and 2D depict paclitaxel treatment leads to selective expansion of a minority cell population that has undergone an EMT. Control HMLE cells and GFP expressing HMLEshEcad cells were mixed at a ratio of 20:1 and seeded onto 6-well plates in triplicate. DMSO or Paclitaxel at 2.5 nm or 10 nm concentration was added onto the mixed cell populations 1 day after seeding followed by a 3 day incubation. The number of GFP-positive cells at the end of treatment were analyzed by flow cytometry. […] Note the increase in GFP positivity from 5% to 14% upon […] Paclitaxel treatment.
However, we postulated that the differential drug sensitivity observed was, rather, a consequence of the respective differentiation states of the immortalized cells from which the cancer cell lines were derived. To directly examine this hypothesis, we treated HMLEsiGFP and HMLEsiEcad cells for a period of […] with a series of chemical compounds at 3 different concentrations each. Included in these compounds were the established chemotherapy drugs Doxorubicin, Paclitaxel, Actinomycin D, Camptothecin as well as a broad kinase inhibitor, Staurosporine.
(§2) Doxorubicin, paclitaxel, actinomycin D, campthotecin and staurosporine were purchased from Sigma and dissolved in dimethyl sulfoxide (dmso). 5000 cells in 100 ul of medium were plated per well in 96-well plates. 24 hrs after seeding, compounds at the indicated concentration were added to wells (5 wells per each concentration). Dmso treatment was used as negative control. Cell viability was measured after 72 hrs using the CellTiter96 AQueous Assay (Promega) according to manufacturer's instructions. Dose response curves were generated with GraphPad Prism software (GraphPad Software, Inc.).

Test [2] relates to HMLEshEcad cells. As to the kind of experiment: Dose-response viability of HMLEshCntrl vs HMLEshEcad cells (validation of hits, 384-well, Cell-Titer-Glo). Type of test: cell-based, human. Conditions: FIG. 4A; for selective toxicity towards HMLEshEcad cells relative to HMLEshCntrl cells: dose response on retesting; for IC50 fold lower for HMLEshEcad cells vs HMLEshCntrl cells: 3 day treatment, 8 concentrations. The protocol: (§3) FIG. 4A depicts dose response curves of HMLEshCntrl (A, light gray curve) and HMLEshEcad (A, dark gray curve) cells treated with the 8 compounds identified during the initial screen. 1000 cells of each line were seeded onto 384 well plates and treated with 8 different concentrations of compounds within a 2.5 log range. The cell viability after 3 day treatment was measured by Cell-Titer-Glo. […] FIG. 4B depicts dose response curves of HMLEshCntrl (curve with square data points) and HMLE-Twist (curve with triangular data points) cells treated with the same compounds as in (A). Note that selectivity of Salinomycin, Abamectin, Etoposide and Nigericin (Top, Left-to-Right) is retained even though a different method of EMT induction is used. […] 1 Day after seeding DMSO, Salinomycin (1.25 or 5 μM) or Abamectin (0.25 or 1.25 μM) was added at the indicated concentration. As the GFP vector contains a Blasticidin resistance gene, we used Blasticidin treatment as a positive control for the expansion of GFP-expressing control HMLE cells. After 3 day incubation the mix population of cells were analyzed by flow cytometry and the percentage of GFP-positive cells were determined. […] FIG. 4D depicts dose response curves of transformed HMLERshCntrl (light gray line) and HMLERshEcad (dark gray lines) cells treated with Salinomycin and Abamectin. Dotted line denotes the 50% fraction surviving.
We pursued 8 of the 32 compounds for further study and evaluated their effects across a range of doses.
For each of these compounds, we evaluated the effect on cell viability across a series of doses for sibling cell lines either induced into or not induced into EMT.
Information about the general automated HTS protocol is available online at broad.harvard.edu/chembio/index.html. The assay was initiated by plating 40 μL of medium containing 1000 cells/well into white 384-well opaque-bottom plates (Nunc, Rochester, N.Y.) using an automated plate filler (Bio-Tek μFiller; Winsooki, Vt.) and allowing the cells to adhere for 24 hours. 100 nL of compound stock solutions in dmso was transferred from stock plates into the 384-well assay plates using an automated pin-based compound transfer robot (CyBio CyBi-Well vario; Woburn, Mass.). For most compounds the final concentration in each well was calculated to be 10 uM.
The screen was performed in duplicate. For negative controls, entire dmso-treated control plates were employed, in addition to dmso-only control wells that were incorporated into each compound assay plate. The cells were assayed for luciferase activity with the addition 20 ul of CellTiter-Glo Luminescent Cell Viability Assay solution (Promega). The luminescent signal from each plate was detected using an automated plate reader (Perkin-Elmer Envision 1; Wellesley, Mass.).
(§4) Individual compounds were purchased from Sigma and dissolved in DMSO with the exception of nigericin which was dissolved in 100% ethanol. Activity of the compounds were quantified by generating dose-response curves for HMLE-shCntrl, HMLE-shEcad and HMLE-Twist under the same cell density and culture conditions described for the initial screen, using the 384-well plate based system.

The subject of test [3] is SUM159 cells. As to the kind of experiment: FACS of the CD44hi/CD24lo fraction in treated SUM159 cells. Type of test: cell-based. To be noted: FIGS. 5C and 5D. The source says: FIG. 5A depicts flow cytometry analysis of Sum159, MDA-MB-231 and T47D cell lines with respect to cell surface expression of CD44 and CD24. Note that while the majority of cells in Sum159 and MDA-MB-231 line contain large amounts of CSCs, T47D cells have very few such cells. FIG. 5B depicts dose response curves of Sum159, MDA-MB-231 and T47D cell treated with Salinomycin.
To further characterize the effects of compound treatment on cancer cells, we conducted FACS analyses on SUM159 cells treated with salinomycin, abamectin, taxol, or DMSO.
The anti-CD44 (clone G44-26) antibody conjugated to APC and the anti-CD24 antibody (clone ML5) conjugated to PE used for FACS analysis were obtained from BD Bioscience and used according to the manufacturer's instructions. Propidium Iodide (5 ug/ml) was included in the staining protocol to distinguish live cells.

Test [4] has as its system HMLERshEcad cells. As to the kind of experiment: Dose response of transformed HMLERshCntrl vs HMLERshEcad cells to screen hits. Conditions: range of concentrations, FIG. 4D. Type of test: cell-based, human. The protocol: as §3
Test [5] concerns HMLE-Twist cells. Nature of the test: Dose-response viability of HMLEshCntrl vs HMLE-Twist cells. Type of test: cell-based, human. Conditions: EMT induced by Twist, FIG. 4B. The protocol: as §3, §4
Test [6] concerns HMLE-Twist cells. Nature of the test: Co-culture of GFP-expressing HMLE cells and unlabelled HMLE-Twist cells, FACS for GFP positivity. The format is cell-based, human. To be noted: FIG. 4C; for GFP-positive fraction relative to DMSO-treated controls: GFP-labeled HMLE + unlabeled HMLE-Twist. The protocol:
as §3
To examine the effects of salinomycin and abamectin treatment on heterogeneous populations of epithelial cells that have and epithelial cells that have not undergone EMT, we co-mixed GFP-labeled HMLE cells with unlabeled HMLE-Twist cells, treating the resulting co-cultures with compounds. As a positive control for this experiment we treated co-cultures with blasticidin, which selects for the differentiated HMLE-GFP cells, which harbor a blasticidin-resistance gene.
For the mix experiments, unlabelled and GFP-labeled cells were mixed at the indicated ratios and seeded onto 6-well plates. Triplicate wells were then treated with dmso or the compounds (paclitaxel, salinomycin, abamectin and blasticidin) for 48 hrs. The cells were washed with PBS, trypsinized and analyzed by FACS for GFP positivity.

For test [7], the system named is HMLERshEcad cells. As to the kind of experiment: Resistance to cytotoxic agents, transformed HMLERshCntrl vs HMLERshEcad dose response. Type of test: cell-based, human. Conditions: FIG. 2A. The protocol: as §1
Since the HMLERsiEcad cells have a 100-fold increase in the frequency of cells capable of seeding tumors, we examined their response to two commonly used chemotherapy drugs, relative to HMLERsiGFP controls. We treated cultured HMLERsiGFP and HMLERsiEcad cells for a period of 3 days with either doxorubicin or paclitaxel, at various concentrations.
as §2

Turning to `CN[C@@H]1C[C@H]2O[C@@](C)([C@@H]1OC)n1c3ccccc3c3c4c(c5c6ccccc6n2c5c31)C(=O)NC4` [staurosporine], the “resistance of HMLEshEcad cells relative to HMLEshCntrl control cells” value in test [1] was “resistant”; in test [1] (listed as Staurosporine), “increased resistance”.
In the case of `Clc1ccccc1C(c1ccccc1)(c1ccccc1)n1ccnc1` [Clotrimazole], the “selective toxicity towards HMLEshEcad cells relative to HMLEshCntrl cells” value in test [2] is reported as “do not display such a behaviour”.
Turning to `Cc1c2oc3c(C)ccc(C(=O)N[C@@H]4C(=O)N[C@H](C(C)C)C(=O)N5CCC[C@H]5C(=O)N(C)CC(=O)N(C)[C@@H](C(C)C)C(=O)O[C@@H]4C)c3nc-2c(C(=O)N[C@@H]2C(=O)N[C@H](C(C)C)C(=O)N3CCC[C@H]3C(=O)N(C)CC(=O)N(C)[C@@H](C(C)C)C(=O)O[C@@H]2C)c(N)c1=O` [actinomycin D] (I: T[dV]P[Sar][NMeV] / II: T[dV]P[Sar][NMeV]; ester I:1-I:C, II:1-II:C; linker I:N-II:N via Actinocin(9to1)), the “resistance of HMLEshEcad cells relative to HMLEshCntrl control cells” value in test [1] was “resistant”; in test [1] (listed as Actinomycin D), “increased resistance”.
Regarding `Oc1cccc(O)c1` [Resorcinol], in test [2], the “selective toxicity towards HMLEshEcad cells relative to HMLEshCntrl cells” value is “do not display such a behaviour”.
For the molecule abamectin, in test [3], the “percent of cells in the CD44hi/CD2410 fraction relative to DMSO controls” value was “did not significantly alter”. Also, the “selective toxicity for HMLERshEcad (MT tumorigenic) cells” value in test [4] is on record as “modest but selective toxicity”. For the same molecule, the “selectivity for HMLE-Twist cells vs HMLEshCntrl; dose-response curves compared with HMLEshEcad” value in test [5] is “is retained”. The “GFP-positive fraction relative to DMSO-treated controls” value in test [6] is recorded as “increase”. Further, the “proportion of HMLETwist cells in co-culture with control cells” value in test [6] (Salinomycin 1.25 or 5 μM, Abamectin 0.25 or 1.25 μM) is “dose-dependent decrease; also recorded: selection against the GFP-negative HMLE-twist cells”. For the same molecule, the “IC50 fold lower for HMLEshEcad cells vs HMLEshCntrl cells” value in test [2] was around 10 fold. Besides, the results for the “selective toxicity towards HMLEshEcad cells relative to HMLEshCntrl cells” value in test [2] and in test [2] (listed as Abamectin) were “moderate to strong selectivity; also recorded: strong specificity” and “selective toxicity”, respectively.
Turning to `c1ccc2nc3ccccc3cc2c1` [Acridine], the “selective toxicity towards HMLEshEcad cells relative to HMLEshCntrl cells” value in test [2] was “do not display such a behaviour”.
Consider `COc1cccc2c1C(=O)c1c(O)c3c(c(O)c1C2=O)C[C@@](O)(C(=O)CO)C[C@@H]3O[C@H]1C[C@H](N)[C@H](O)[C@H](C)O1` [doxorubicin], for which, in test [1], the “resistance of HMLEshEcad cells relative to HMLEshCntrl control cells” value was “increased resistance”. Besides, the “IC50 for HMLERsiEcad cells relative to IC50 for HMLERsiGFP cells” value in test [7] (3 days, various concentrations) was “significantly higher”. Further, the “resistance of HMLERshEcad cells compared to HMLERshCntrl cells” value was “significantly more resistant” in test [7] and “more resistant” in test [7] (listed as Doxorubicin).
On to `CC[C@@]1(O)C(=O)OCc2c1cc1n(c2=O)Cc2cc3ccccc3nc2-1` [camptothecin], for which the results for the “resistance of HMLEshEcad cells relative to HMLEshCntrl control cells” value in test [1] and in test [1] (listed as Camptothecin) were “resistant” and “increased resistance”, respectively.
Consider `CN(CC[C@H](N)CC(=O)N[C@H]1C=C[C@H](n2ccc(N)nc2=O)O[C@@H]1C(=O)O)C(=N)N` [blasticidin], for which the “GFP-positive fraction relative to DMSO-treated controls” value in test [6] is listed as “increase”.
As for `CO[C@@H]1C[C@@H](C[C@H]2CC[C@H](C)[C@H]([C@@H](C)C(=O)O)O2)O[C@]2(O[C@](C)([C@H]3CC[C@@](C)([C@@H]4O[C@@H]([C@H]5O[C@@](O)(CO)[C@H](C)C[C@@H]5C)C[C@@H]4C)O3)C[C@H]2C)[C@@H]1C` [nigericin], in test [5], the “selectivity for HMLE-Twist cells vs HMLEshCntrl; dose-response curves compared with HMLEshEcad” value is recorded as “is retained”. Further, in test [2], the “IC50 fold lower for HMLEshEcad cells vs HMLEshCntrl cells” value is listed as around 7 fold and the “selective toxicity towards HMLEshEcad cells relative to HMLEshCntrl cells” value was “weaker selectivity; also recorded: modest selective toxicity”. Besides, the “selective toxicity towards HMLEshEcad cells relative to HMLEshCntrl cells” value in test [2] (listed as Nigericin) is recorded as “selective toxicity”.
